In patent EP4722213A1, “NITROGEN-CONTAINING FUNCTIONAL GROUP-SUBSTITUTED PYRIDAZINOPYRIDONE DERIVATIVE AND USE THEREOF” (Sichuan Huiyu Pharmaceutical Co., Ltd., priority 2023, dated 2024):
pIC50: −log10 of the molar value. Counter-ions that a name gives are not always drawn.

Columns and labels:
[1] = target: T1, SOS1 (Homo sapiens, UniProt Q07889); assay: biochemical
T1 sequence (Q07889 1-1333): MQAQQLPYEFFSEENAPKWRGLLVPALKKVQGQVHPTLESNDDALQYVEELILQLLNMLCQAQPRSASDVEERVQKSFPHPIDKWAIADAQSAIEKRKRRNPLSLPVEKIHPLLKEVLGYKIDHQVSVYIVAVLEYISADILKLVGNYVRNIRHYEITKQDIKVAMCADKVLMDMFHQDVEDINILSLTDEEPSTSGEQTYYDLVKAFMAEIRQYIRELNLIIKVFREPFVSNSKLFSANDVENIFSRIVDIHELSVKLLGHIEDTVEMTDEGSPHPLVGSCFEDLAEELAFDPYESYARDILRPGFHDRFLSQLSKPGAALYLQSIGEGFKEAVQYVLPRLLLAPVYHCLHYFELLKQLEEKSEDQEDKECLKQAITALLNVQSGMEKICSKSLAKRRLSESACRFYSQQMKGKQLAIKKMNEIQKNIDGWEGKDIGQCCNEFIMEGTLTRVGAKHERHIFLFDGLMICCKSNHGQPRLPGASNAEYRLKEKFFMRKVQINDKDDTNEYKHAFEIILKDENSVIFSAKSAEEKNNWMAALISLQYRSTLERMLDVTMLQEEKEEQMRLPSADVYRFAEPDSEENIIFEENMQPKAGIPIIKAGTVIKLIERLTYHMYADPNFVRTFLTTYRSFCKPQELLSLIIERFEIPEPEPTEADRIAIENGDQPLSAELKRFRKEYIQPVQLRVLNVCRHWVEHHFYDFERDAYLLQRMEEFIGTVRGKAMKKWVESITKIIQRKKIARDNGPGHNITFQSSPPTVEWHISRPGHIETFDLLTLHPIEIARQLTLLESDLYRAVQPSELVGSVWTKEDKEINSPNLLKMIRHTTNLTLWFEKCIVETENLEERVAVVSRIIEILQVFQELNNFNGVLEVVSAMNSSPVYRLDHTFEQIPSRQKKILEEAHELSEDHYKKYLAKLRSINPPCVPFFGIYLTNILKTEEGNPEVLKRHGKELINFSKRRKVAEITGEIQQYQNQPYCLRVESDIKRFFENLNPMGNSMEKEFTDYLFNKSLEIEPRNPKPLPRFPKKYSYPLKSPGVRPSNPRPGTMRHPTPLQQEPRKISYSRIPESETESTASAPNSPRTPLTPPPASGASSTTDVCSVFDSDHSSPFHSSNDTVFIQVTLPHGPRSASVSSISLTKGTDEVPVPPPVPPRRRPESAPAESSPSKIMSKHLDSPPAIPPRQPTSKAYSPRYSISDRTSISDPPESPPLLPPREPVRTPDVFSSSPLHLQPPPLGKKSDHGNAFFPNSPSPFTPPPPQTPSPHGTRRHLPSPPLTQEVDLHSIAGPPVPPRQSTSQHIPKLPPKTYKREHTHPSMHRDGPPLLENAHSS

[2] = test system: NCI-H358 non-small cell lung cancer cells; assay: Inhibition of NCI-H358 cell proliferation (CellTiter-Glo 3D, 7 days); type: cell-based; settings: Homo sapiens, NCI-H358, 168 h, 3D microspheres, read-out: Inhibitory activity against NCI-H358 cell proliferation (IC50)
Description: The number of viable cells were detected by CellTiter-Glo 3D® reagent, thereby evaluating the inhibitory effect of compounds on cell proliferation. NCI-H358 non-small cell lung cancer cells (Nanjing cobioer) in the exponential growth phase were digested with trypsin-EDTA, and seeded into 96-well ultra-low attachment microplates at 100 µL per well with a density of 2000 cells/well. The cells were cultured overnight at 37°C with 5% CO2 to form microspheres. The test compounds were serially diluted 5-fold with DMSO to obtain 8 concentration gradient dilutions, then diluted with RPMI-1640 (10% FBS) cell culture medium respectively to obtain compound working solutions (2×). 100 µL per well was added to the cell supernatant, and the culture was continued for 7 days under the conditions of 37°C and 5% CO2. The well plate was removed, and 100 µL of CellTiter-Glo 3D® reagent was added. After lysis at room temperature for 10-30 minutes, 70 µL of the lysate was aspirated and transferred to a white opaque 384-well plate.
The inhibition rate was calculated by the following formula: [formula] Note: The negative control refers to the group without inhibitor, and the blank refers to the group without cells.
The inhibitory activities of some Example compounds and comparative compounds against NCI-H358 cell proliferation are shown in Table 2. Table 2. Inhibitory activity of some Example compounds against NCI-H358 cell proliferation

SMILES | pIC50 [1] | pIC50 [2]
C[C@@H](Nc1nnc(N2CCN(C)C[C@@H]2C)c2cc(=O)n(C3(C)CC3)cc12)c1cccc(C(F)F)c1F [Example 195, 4-(((R)-1-(3-(difluoromethyl)-2-fluorophenyl)ethyl)amino)-1-((S)-2,4-dimethylpiperazin-1-yl)-6-(1-methylcyclopropyl) pyrido[3,4-d]pyridazin-7(6H)-one] | 8.43 | 7.59
CCN1CCN(c2nnc(N[C@H](C)c3cccc(C(F)(F)F)c3)c3cn(C4(C)CC4)c(=O)cc23)CC1 [Example 156, (R)-1-(4-ethylpiperazin-1-yl)-6-(1-methylcyclopropyl)-4-((1-(3-(trifluoromethyl)phenyl)ethyl)amino)pyr ido[3,4-d]pyridazin-7(6H)-one formate] | 8.27 | 7.32
C[C@@H](Nc1nnc(N2CCN3CCCC3C2)c2cc(=O)n(C3(C)CC3)cc12)c1cccc(C(F)F)c1F (stereo partly drawn) [Example 192, 4-(((R)-1-(3-(difluoromethyl)-2-fluorophenyl)ethyl)amino)-1-(hexahydropyrrolo[1,2-a]pyrazin-2(1H)-yl)-6-(1-methylcyclopropyl) pyrido[3,4-d]pyridazin-7(6H)-one] | 8.42 | 7.54
Cc1c([C@@H](C)Nc2nnc(N3CCCC3)c3cc(=O)n(C4(C)CC4)cc23)cccc1C(F)(F)F [Example 61, (R)-4-((1-(2-methyl-3-(trifluoromethyl)phenyl)ethyl)amino)-6-(1-methylcyclopropyl)-1-(pyrrolidin-1-yl)pyrido[3,4-d]pyridazin-7(6H)-one] | 8.21 | 7.50
C[C@@H](Nc1nnc(N2CCN(CCO)CC2)c2cc(=O)n(C3(C)CC3)cc12)c1cccc(C(F)F)c1F [Example 194, (R)-4-((1-(3-(difluoromethyl)-2-fluorophenyl)ethyl)amino)-1-(4-(2-hydroxyethyl)piperazin-1-yl)-6-(1-methylcyclopropyl) pyrido[3,4-d]pyridazin-7(6H)-one] | 8.41 | 7.35
Cc1c([C@@H](C)Nc2nnc(N3CCN(C)CC3)c3cc(=O)n(C4(C)CC4)cc23)cccc1C(F)(F)F [Example 81, (R)-4-((1-(2-methyl-3-(trifluoromethyl)phenyl)ethyl)amino)-6-(1-methylcyclopropyl)-1-(4-methylpiperazin-1-yl)pyrido[3,4-d]pyridazin-7(6H)-one] | 8.20 | 7.19
C[C@@H](Nc1nnc(N2CCCC2)c2cc(=O)n(C3(C)CC3)cc12)c1cccc(C(F)F)c1F [Example 5, (R)-4-((1-(3-(difluoromethyl)-2-fluorophenyl)ethyl)amino)-6-(1-methylcyclopropyl)-1-(pyrrolidin-1-yl)pyrido[3,4-d]pyridazin-7(6H)-one] | 8.33 | 7.30
C[C@@H](Nc1nnc(N2CCN(C)CC2)c2cc(=O)n(C3(C)CC3)cc12)c1cccc(C(F)(F)F)c1F [Example 164, (R)-4-((1-(2-fluoro-3-(trifluoromethyl)phenyl)ethyl)amino)-6-(1-methylcyclopropyl)-1-(4-methylpiperazin-1-yl)pyrido[3,4-d]pyridazin-7(6H)-one] | 8.38 | 7.48
CCN1CCN(c2nnc(N[C@H](C)c3cccc(C(F)(F)CO)c3)c3cn(C4(C)CC4)c(=O)cc23)CC1 [Example 227, (R)-4-((1-(3-(1,1-difluoro-2-hydroxyethyl)phenyl)ethyl)amino)-1-(4-ethylpiperazin-1-yl)-6-(1-methylcyclopropyl) pyrido[3,4-d]pyridazin-7(6H)-one] | 8.42 | 7.32
C[C@@H](Nc1nnc(N2CCC2)c2cc(=O)n(C3(C)CC3)cc12)c1cccc(C(F)F)c1F [Example 16, (R)-1-(azetidin-1-yl)-4-((1-(3-(difluoromethyl)-2-fluorophenyl)ethyl)amino)-6-(1-methylcyclopropyl) pyrido[3,4-d]pyridazin-7(6H)-one formate] | 8.39 | 7.24
C[C@@H](Nc1nnc(N2CCN(C)CC2)c2cc(=O)n(C3CC3)cc12)c1cccc(S(F)(F)(F)(F)F)c1 [Example 89, (R)-6-cyclopropyl-1-(4-methylpiperazin-1-yl)-4-((1-(3-(pentafluoro-λ^6-sulfaneyl)phenyl)ethyl)amino)pyrido[3,4-d]pyridazin-7(6H)-one] | 8.39 | 7.23
C[C@@H](Nc1nnc(NC2CCOC2)c2cc(=O)n(C3(C)CC3)cc12)c1cccc(C(F)F)c1F (stereo partly drawn) [Example 119, 4-(((R)-1-(3-(difluoromethyl)-2-fluorophenyl)ethyl)amino)-6-(1-methylcyclopropyl)-1-((tetrahydrofuran-3-yl)amino)pyrido[3,4-d]pyridazin-7(6H)-one formate] | 8.37 | 7.23
C[C@@H](Nc1nnc(N2CCN(C)CC2)c2cc(=O)n(N3CCN(C)CC3)cc12)c1cccc(C(F)F)c1F [Example 151, (R)-4-((1-(3-(difluoromethyl)-2-fluorophenyl)ethyl)amino)-1,6-bis(4-methylpiperazin-1-yl)pyrido[3,4-d]pyridazin-7(6H)-one] | 8.42 | 7.40
C[C@@H](Nc1nnc(N2CCN(C)CC2)c2cc(=O)n(C3(C)CC3)cc12)c1cccc(C(F)(F)F)c1 [Example 157, (R)-1-(4-methylpiperazin-1-yl)-6-(1-methylcyclopropyl)-4-((1-(3-(trifluoromethyl)phenyl)ethyl)amino)pyr ido[3,4-d]pyridazin-7(6H)-one formate] | 8.29 | 7.28
CC1CN(c2nnc(N[C@H](C)c3cccc(C(F)F)c3F)c3cn(C4(C)CC4)c(=O)cc23)C1 [Example 130, (R)-4-((1-(3-(difluoromethyl)-2-fluorophenyl)ethyl)amino)-1-(3-methylazetidin-1-yl)-6-(1-methylcyclopropyl) pyrido[3,4-d]pyridazin-7(6H)-one] | 8.47 | 7.32
Cc1c([C@@H](C)Nc2nnc(N3CCCC3)c3cc(=O)n(C4CC4)cc23)cccc1C(F)(F)F [Example 49, (R)-6-cyclopropyl-4-((1-(2-methyl-3-(trifluoromethyl)phenyl)ethyl)amino)-1-(pyrrolidin-1-yl) pyrido[3,4-d]pyridazin-7(6H)-one] | 8.22 | 7.26
CCNc1nnc(N[C@H](C)c2cccc(C(F)F)c2F)c2cn(C3(C)CC3)c(=O)cc12 [Example 105, (R)-4-((1-(3-(difluoromethyl)-2-fluorophenyl)ethyl)amino)-1-(ethylamino)-6-(1-methylcyclopropyl) pyrido[3,4-d]pyridazin-7(6H)-one] | 8.33 | 7.24
C[C@@H](Nc1nnc(N2CC3(CCC3)C2)c2cc(=O)n(C3(C)CC3)cc12)c1cccc(C(F)F)c1F [Example 191, (R)-4-((1-(3-(difluoromethyl)-2-fluorophenyl)ethyl)amino)-6-(1-methylcyclopropyl)-1-(2-azaspiro[3.3]heptan-2-yl)pyrido[3,4-d]pyridazin-7(6H)-one] | 8.35 | 7.41
